Measurements from the supplement of paper PMC4862054.

How the values were obtained:
Assay in all cases: normalised response (% of control), CellTiter-Glo; higher = more viable cells (100 = DMSO, 0 = benzethonium chloride kill control)
Details in all cases: incubation time: 72 h
HCC1937 = tested on: HCC1937
Summary of the method: (§1)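 The table gives the normalised signal for a single concentration in each entry. Breast cancer cell lines were seeded (20 µl suspension) into 384-well plates holding compound at 5 concentrations in 10-fold steps over a compound-specific 10,000-fold range and incubated 72 h, then read for CellTox Green fluorescence (485/520 nm) and CellTiter-Glo luminescence. Normalisation on each plate used 0.1 % DMSO (100) and a positive kill control (0).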

MDA-MB-453 = tested on: MDA-MB-453
Summary of the method: as §1

HDQ-P1 = tested on: HDQ-P1
Summary of the method: as §1

CAL-51 = tested on: CAL-51
Summary of the method: as §1

DU-4475 = tested on: DU-4475
Summary of the method: as §1

MDA-MB-231 = tested on: MDA-MB-231
Summary of the method: as §1

HCC1143 = tested on: HCC1143
Summary of the method: as §1

Hs578T = tested on: Hs578T
Summary of the method: as §1

MDA-MB-468 = tested on: MDA-MB-468
Summary of the method: as §1

BT-549 = tested on: BT-549
Summary of the method: as §1

CAL-148 = tested on: CAL-148
Summary of the method: as §1

CAL-85-1 = tested on: CAL-85-1
Summary of the method: as §1

BT-474 = tested on: BT-474
Summary of the method: as §1

MDA-MB-436 = tested on: MDA-MB-436
Summary of the method: as §1

CAL-120 = tested on: CAL-120
Summary of the method: as §1

MCF-10A = tested on: MCF-10A
Summary of the method: as §1

HCC1599 = tested on: HCC1599
Summary of the method: as §1

MFM-223 = tested on: MFM-223
Summary of the method: as §1

SK-BR-3 = tested on: SK-BR-3
Summary of the method: as §1

Row | Structure (SMILES) | normalised response (HCC1937) [%] | normalised response (MDA-MB-453) [%] | normalised response (HDQ-P1) [%] | normalised response (CAL-51) [%] | normalised response (DU-4475) [%] | normalised response (MDA-MB-231) [%] | normalised response (HCC1143) [%] | normalised response (Hs578T) [%] | normalised response (MDA-MB-468) [%] | normalised response (BT-549) [%] | normalised response (CAL-148) [%] | normalised response (CAL-85-1) [%] | normalised response (BT-474) [%] | normalised response (MDA-MB-436) [%] | normalised response (CAL-120) [%] | normalised response (MCF-10A) [%] | normalised response (HCC1599) [%] | normalised response (MFM-223) [%] | normalised response (SK-BR-3) [%]
1 | Nc1nc(Cl)nc2c1ncn2[C@@H]1O[C@H](CO)[C@@H](O)[C@@H]1F [Clofarabine] (10 nM) | 95.8 | 91.3 | 96.8 | 72.2 | 102 | 93.5 | 102 | 105 | 98.9 | 98.3 | 107 | 105 | 102 | 95.1 | 101 | 105 | 95.2 | 101 | 
2 | CCN(CC)CCOc1ccc(C(=C(Cl)c2ccccc2)c2ccccc2)cc1 [Clomifene] (10 nM) | 111 | 112 | 100 | 122 | 103 | 105 | 104 | 103 | 99.2 | 99.5 | 102 | 99.9 | 107 | 101 | 106 | 107 | 96.3 | 102 | 
3 | C[C@@H]1C[C@H]2[C@@H]3CCC4=CC(=O)C=C[C@]4(C)[C@@]3(F)[C@@H](O)C[C@]2(C)[C@@]1(O)C(=O)CO [Dexamethasone] (10 nM) | 97.5 | 95.2 | 89.8 | 113 | 101 | 137 | 103 | 104 | 97.9 | 97.4 | 100 | 116 | 130 | 102 | 83.2 | 94 | 100 | 95.2 | 
4 | CCc1cnn2c(NCc3ccc[n+]([O-])c3)cc(N3CCCC[C@H]3CCO)nc12 [Dinaciclib] (0.1 nM) | 102 | 99 | 104 | 82.8 | 102 | 98.5 | 102 | 99 | 93.8 | 109 | 110 | 98.4 | 97.1 | 99.3 | 99.6 | 106 | 103 | 100 | 103
5 | CCc1cnn2c(NCc3ccc[n+]([O-])c3)cc(N3CCCC[C@H]3CCO)nc12 [Dinaciclib] (1 nM) | 98.5 | 103 | 104 | 82.1 | 97.8 | 98.3 | 107 | 109 | 97.8 | 92.5 | 115 | 101 | 95.7 | 98.5 | 99.6 | 102 | 101 | 103 | 
6 | CC(C)NC[C@@H](C(=O)N1CCN(c2ncnc3c2[C@H](C)C[C@H]3O)CC1)c1ccc(Cl)cc1 [GDC-0068] (10 nM) | 97 | 91.1 | 96.1 | 108 | 105 | 110 | 103 | 100 | 95.7 | 98.2 | 96.8 | 95.6 | 96.8 | 94.4 | 99.8 | 103 | 90.8 | 98.8 | 
7 | COc1cc2c(cc1-c1c(C)noc1C)ncc1[nH]c(=O)n([C@H](C)c3ccccn3)c12 [I-BET151] (10 nM) | 98.5 | 91.7 | 97.9 | 94.3 | 103 | 105 | 107 | 99 | 99.2 | 91.9 | 111 | 99.4 | 98 | 101 | 100 | 108 | 100 | 103 | 
8 | COc1cc2c(N3CCN(C(=O)Nc4ccc(OC(C)C)cc4)CC3)ncnc2cc1OCCCN1CCCCC1 [Tandutinib] (1 nM) | 99 | 95.1 | 103 | 118 | 102 | 101 | 103 | 98.6 | 102 | 94.9 | 101 | 107 | 99.9 | 107 | 104 | 99.8 | 90.9 | 103 | 
9 | C[C@@H](C(=O)O)c1ccc(-c2ccccc2)c(F)c1 [Tarenflurbil] (10 nM) | 101 | 94.9 | 98 | 123 | 97 | 94.6 | 101 | 104 | 86.7 | 94.5 | 92.2 | 95.3 | 90.8 | 105 | 96.7 | 97.5 | 106 | 93.7 | 
10 | Cn1nnc2c(C(N)=O)ncn2c1=O [Temozolomide] (10 nM) | 95.8 | 98 | 96.7 | 110 | 99.4 | 99.5 | 98.5 | 100 | 97 | 102 | 102 | 103 | 97 | 101 | 97.9 | 92.1 | 88.7 | 97.5 | 
